From US4996230A, “Leukotriene antagonists” (Eli Lilly and Company, priority 1990, dated 1991)

Target: T1, leukotriene B4 specific receptor on the membrane of human neutrophils (Homo sapiens, UniProt Q15722)
T1 construct: a specific receptor on the membrane of human neutrophils; endogenous in cells; host or cells: human peripheral blood neutrophils (buffy coats of two blood donors; intact cells, at least 90% neutrophils)
Test: Inhibition of Binding of ^3H-LTB4 to Peripheral Human Neutrophils (radio-ligand binding assay)
Conditions: 0.1-0.2 nM ^3H-LTB4, 10 minutes at 4° C., read-out: LTB4 Binding Inhibition (percent inhibition); for inhibition at 10 µM: Drug Concentration 10^-5 M; for inhibition at 1 µM: Drug Concentration 10^-6 M; for inhibition at 0.1 µM: Drug Concentration 10^-7 M
Method: Inhibition of Binding of ^3 H-LTB4 to Peripheral Human Neutrophils
The effectiveness of compounds to inhibit the binding of leukotriene B4 to a specific receptor on the membrane of human neutrophils was measured by using an adaptation of a radio-ligand binding assay developed by Goldman and Goetzl, J. Immunol., 129, 1600 (1982). Other investigators have developed similar assays (see, e.g., Kreisle, et al., J. Exp. Med., 157, 628 (1983) and Lin, et al., Prostaglandins, 28, 837 (1984)).
Cells used in the assay were isolated by standard techniques of centrifugation on Ficoll-Hypaque, dextran 70 sedimentation and hypotonic lysis. The following procedure was used. Freshly-prepared buffy coat layers from two individuals were obtained from a local blood donor center. The cells were mixed and diluted to 484 ml with phosphate buffered saline containing heparin (10 units/ml) and heat-inactivated calf serum (5%). This was divided into 20 ml aliquots and the aliquots layered on top of Ficoll-Paque (12 ml). The material was then centrifuged at 500 g for 40 minutes at room temperature. The resulting upper layer of platelets and mononuclear cells was discarded. The lower layer containing erythrocytes and neutrophils was retained. Buffer was added (1 ml per 4 ml of lower layer) and the suspension mixed. For each milliliter of this mixture, 0.33 ml of 6% Macrodex was added. After stirring, the cells were allowed to sediment for 1 hour at 37° C. The resulting erythrocyte pellet was discarded and the neutrophil enriched supernatant fluid centrifuged at 500 g for 10 minutes at 4° C. Erythrocytes still present in this cell pellet were lysed by incubating the cells with 5-8 ml ice-cold distilled water for 30-45 seconds. Subsequently, the volume was made up to 50 ml by addition of ice-cold buffer and the cells resuspended. The suspension was then centrifuged at 300 g for 10 minutes at 4° C. The cells were finally resuspended at a cell density of 2×10^7 cells/ml in the assay buffer. This buffer consisted of Hanks' balanced salt solution and 0.1% ovalbumin (pH 7.3).
The amount of bound ^3 H-LTB4 was then measured and compared with the amount bound in the absence of test compound. The assay was carried out in microcentrifuge tubes by adding first 10 μl test compound dissolved in DMSO, followed by adding 20 μl ^3 H-LTB4 diluted in assay buffer, and finally adding 500 μl of the cell suspension. At the end of the 10 minutes incubation, 300 μl of a mixture of dibutyl and dinonyl phthalate (7:2) were added and the tubes centrifuged for 2 minutes in a microcentrifuge. The radioactivity bound to the cell pellet was measured by scintillation spectroscopy. Appropriate corrections for nonspecific bonding of ^3 H-LTB4 were made.

T1 sequence (Q15722 whole entry): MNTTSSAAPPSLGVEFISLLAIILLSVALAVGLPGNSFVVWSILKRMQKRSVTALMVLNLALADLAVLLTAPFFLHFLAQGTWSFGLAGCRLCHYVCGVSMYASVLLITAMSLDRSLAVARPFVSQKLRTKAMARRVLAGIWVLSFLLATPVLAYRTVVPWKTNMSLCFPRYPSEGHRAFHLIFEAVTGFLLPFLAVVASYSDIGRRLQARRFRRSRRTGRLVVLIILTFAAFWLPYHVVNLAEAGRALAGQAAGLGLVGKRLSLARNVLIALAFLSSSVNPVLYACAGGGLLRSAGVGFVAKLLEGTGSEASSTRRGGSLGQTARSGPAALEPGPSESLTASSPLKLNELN

COc1ccc(CCCCCCOc2ccc3c(=O)c4cc(C(=O)O)ccc4oc3c2CCC(=O)O)cc1 [Example 7, 7-Carboxy-3-{[6-(4-methoxyphenyl)hexyl]oxy}-9-oxo-9H-xanthene-4-propanoic acid]
inhibition at 10 µM: 106% | inhibition at 1 µM: 103% | inhibition at 0.1 µM: 85%

CCCCCCCCCCOc1ccc2c(=O)c3cc(C(=O)O)ccc3oc2c1CCC(=O)O [Example 4, 7-Carboxy-3-(decyloxy)-9-oxo-9H-xanthene-4-propanoic acid]
inhibition at 10 µM: 102% | inhibition at 1 µM: 86% | inhibition at 0.1 µM: 52%

CCCCCCCCCCOc1ccc2c(=O)c3cccc(C(=O)O)c3oc2c1CCC(=O)O [Example 2, 5-Carboxy-3-(decyloxy)-9-oxo-9H-xanthene-4-propanoic acid]
inhibition at 1 µM: 27% | inhibition at 0.1 µM: -7%

CCCCCCCCCCOc1cc2c(cc1CCC(=O)O)C(=O)c1cc(C(=O)O)ccc1-2 [Example 8, 7-Carboxy-3-decyloxy-9-oxo-9H-fluorene-2-propanoic acid]
inhibition at 10 µM: 68% | inhibition at 1 µM: 19% | inhibition at 0.1 µM: -4%

CCCCCCCCCCOc1cc2oc3c(C(=O)O)cccc3c(=O)c2cc1CCC(=O)O [Example 1, 5-Carboxy-3-(decyloxy)-9-oxo-9H-xanthene-2-propanoic acid]
inhibition at 1 µM: 25% | inhibition at 0.1 µM: 2%

CCCCCCCCCCOc1cc2oc3ccc(C(=O)O)cc3c(=O)c2cc1CCC(=O)O [Example 3, 7-Carboxy-3-decyloxy-9-oxo-9H-xanthene-2-propanoic acid]
inhibition at 1 µM: 23% | inhibition at 0.1 µM: -4%

COc1ccc(C=CCCCCOc2ccc3c(=O)c4cc(C(=O)O)ccc4oc3c2CCC(=O)O)cc1 [Example 6, 7-Carboxy-3-{[6-(4-methoxyphenyl)-5-hexenyl]oxy}-9-oxo-9H-xanthene-4-propanoic acid]
inhibition at 10 µM: 102% | inhibition at 1 µM: 99% | inhibition at 0.1 µM: 91%
